This assay has as its target T1, wild type aldosterone synthase (ASWT, CYP11B2) (Homo sapiens, UniProt P19099).
T1 construct: full ASWT cDNA
T1 sequence (P19099 25-503): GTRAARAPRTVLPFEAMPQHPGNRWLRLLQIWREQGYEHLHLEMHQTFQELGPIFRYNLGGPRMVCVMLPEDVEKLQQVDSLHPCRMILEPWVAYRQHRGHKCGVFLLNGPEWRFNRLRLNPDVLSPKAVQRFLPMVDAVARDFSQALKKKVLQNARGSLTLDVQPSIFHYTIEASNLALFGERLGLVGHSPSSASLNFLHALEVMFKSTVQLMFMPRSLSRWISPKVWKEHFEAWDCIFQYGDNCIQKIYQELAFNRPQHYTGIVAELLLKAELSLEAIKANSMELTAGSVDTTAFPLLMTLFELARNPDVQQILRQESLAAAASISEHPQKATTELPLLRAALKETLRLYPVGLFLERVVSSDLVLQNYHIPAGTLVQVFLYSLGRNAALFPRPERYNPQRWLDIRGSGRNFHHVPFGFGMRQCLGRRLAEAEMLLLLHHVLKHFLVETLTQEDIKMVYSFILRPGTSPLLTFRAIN
The assay can be described thus: aldosterone production from DOC in CYP11B2-transfected HEK-293 cells, HPLC-MS/MS; Km/Vmax shift. It counts as cell-based.

On to `CC(=O)[C@H]1CC[C@H]2[C@@H]3CCC4=CC(=O)CC[C@]4(C)[C@H]3CC[C@]12C` [progesterone], for which the 50% inhibitory concentration (IC50) was determined as 2240 nM.

As a reminder, the IC50 is the midpoint of a concentration-inhibition curve.
